In data set [1] the target is T1, Protease (Human immunodeficiency virus 1, UniProt Q9YQ12). Put plainly: Inhibition of HIV1 protease.
A short description of data set [2]: Ratio of compound IC50 to lopinavir IC50 for human MT4 cells after 5 days by XTT assay. In kind it is ADME, cell-based. Conditions: read-out: Ratio IC50. On the technique in general: Formazan colour is commonly taken as a measure of viable cells.
Data set [3] addresses T1, Protease. Put plainly: Inhibition of South African HIV1 subtype C protease expressed in Escherichia coli BL21S4 (DE3)pLysS cells using Lys-Ala-Arg-Val-Nle-p-nitro-Phe-Glu-Ala-Nle-NH2 as substrate by spectrophotometry.

pIC50, pKi: −log10 of the molar value. Some results are limits rather than exact numbers.

T1 sequence (Q9YQ12 whole entry): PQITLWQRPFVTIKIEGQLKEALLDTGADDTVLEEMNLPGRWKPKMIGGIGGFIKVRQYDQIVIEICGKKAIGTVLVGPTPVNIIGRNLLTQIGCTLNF

As usually defined, the pIC50 is the negative decadic logarithm of the IC50, by convention in mol/L. Read a high pIC50 as a small IC50. For `CC(C)(C)OC(=O)N[C@@H](Cc1ccccc1)[C@@H](O)CC(C/C=C/c1ccccc1)C(=O)N[C@H](C(=O)NC[C@H]1OC(O)[C@H](O)[C@H]1O)C1CCCCC1` (stereo partly specified), the pIC50 against Protease [1] is 9.77. For `CC(C)[C@H](NC(=O)C[C@@H](NCc1ccccc1)C1O[C@@H]2OC(C)(C)O[C@@H]2[C@H]1OCc1ccccc1)C(=O)N[C@@H](C)C(=O)O` (stereo partly specified), the selectivity ratio at 120 h in data set [2] was above 5000. The same molecule had a pIC50 at Protease [3] of 5.96.

In the case of `CC(C)[C@H](NC(=O)C[C@H](NCc1ccccc1)C1O[C@@H]2OC(C)(C)O[C@@H]2[C@H]1OCc1ccccc1)C(=O)N[C@@H](C)C(=O)O` (stereo partly specified), in data set [2], the selectivity ratio at 120 h was above 5000. For the same molecule, at Protease [3], the pIC50 is 5.89. For `CC(C)[C@H](NC(=O)C[C@@H](N)C1O[C@@H]2OC(C)(C)O[C@@H]2[C@H]1O)C(=O)N[C@@H](C)C(=O)O` (stereo partly specified), the selectivity ratio at 120 h in data set [2] was above 5000. The pIC50 against Protease [3] was 6.02. Taken in the same sequence, the figures for `CC(C)[C@H](NC(=O)C[C@H](N)C1O[C@@H]2OC(C)(C)O[C@@H]2[C@H]1O)C(=O)N[C@@H](C)C(=O)O` (stereo partly specified) were above 5000 and 6.00. For `CC(C)[C@H](NC(=O)[C@H](C)NC(=O)C[C@@H](NCc1ccccc1)C1O[C@@H]2OC(C)(C)O[C@@H]2[C@H]1OCc1ccccc1)C(=O)O` (stereo partly specified), in that order: above 5000 and 5.99.

On to `CC(C)[C@H](NC(=O)[C@H](C)NC(=O)C[C@H](NCc1ccccc1)C1O[C@@H]2OC(C)(C)O[C@@H]2[C@H]1OCc1ccccc1)C(=O)O` (stereo partly specified), for which the selectivity ratio at 120 h in data set [2] was above 5000. This molecule also showed a pIC50 at Protease [3] of 6.12. As for `CC(C)[C@H](NC(=O)[C@H](C)NC(=O)C[C@@H](N)C1O[C@@H]2OC(C)(C)O[C@@H]2[C@H]1O)C(=O)O` (stereo partly specified), the selectivity ratio at 120 h in data set [2] is above 5000. On Protease [3], this molecule showed a pIC50 below 5.00. For `CC(C)[C@H](NC(=O)[C@H](C)NC(=O)C[C@H](N)C1O[C@@H]2OC(C)(C)O[C@@H]2[C@H]1O)C(=O)O` (stereo partly specified), the selectivity ratio at 120 h in data set [2] was above 5000. In addition, at Protease [3], the pIC50 is below 5.00. Taken in the same sequence, the figures for `CC(C)[C@H](NC(=O)[C@H](C)NC(=O)C[C@H](NCc1ccccc1)C1O[C@@H]2OC(C)(C)O[C@@H]2[C@H]1O)C(=O)O` (stereo partly specified) were above 5000 and 6.15. A word on the pKi: it is the negative decadic logarithm of the Ki, by convention in mol/L. Read a high pKi as a low Ki. At Protease [1], `O=C(N[C@@H]1Cc2ccccc2[C@@H]1O)C(OCc1ccccc1)[C@H](O)[C@@H](O)C(OCc1ccccc1)C(=O)N[C@@H]1Cc2ccccc2[C@@H]1O` (stereo partly specified) showed a pKi of 8.91. Take `COC(=O)[C@H](CC(C)C)NC(=O)[C@H](Cc1ccccc1)NC(=O)[C@@H]1O[C@@H](C(=O)N[C@@H](Cc2ccccc2)C(C)N[C@@H](CC(C)C)C(=O)OC)[C@@H](O)[C@@H]1O` (stereo partly specified): the pIC50 against Protease [1] was below 2.70.

The record behind these values is ChEMBL document CHEMBL2034816, “Synthesis and molecular modelling studies of novel carbapeptide analogs for inhibition of HIV-1 protease” (Eur J Med Chem, 2012).
